Columns and labels:
[1] = test system: Schoenoplectiella juncoides; assay: Herbicidal activity against two-leaf stage Schoenoplectiella juncoides assessed as growth inhibition treated 7 to 15 days after planting measured by postemergence activity assay; format: functional
[2] = test system: Schoenoplectiella juncoides; assay: Herbicidal activity against Schoenoplectiella juncoides assessed as weed control in transplanted rice field at 20 g/ha treated after 7 days transplanting; format: functional
Oryza sativa [3] = assay: Effect on Oryza sativa (rice) plant growth in transplanted Oryza sativa field assessed as number of tillers at 20 g/ha treated after 7 days transplanting; format: organism-based; conditions: in vivo, other, 168 h
Oryza sativa [4] = assay: Effect on Oryza sativa (rice) plant growth in transplanted Oryza sativa field assessed as number of tillers at 30 g/ha treated after 10 days transplanting; format: organism-based; conditions: in vivo, other, 240 h
Echinochloa crus-galli [5] = assay: Herbicidal activity against 1.5 leaf stage Echinochloa crus-galli (barnyard grass) assessed as growth inhibition treated 7 to 15 days after planting measured by postemergence activity assay; format: functional
Echinochloa crus-galli [6] = assay: Herbicidal activity against Echinochloa crus-galli (barnyard grass) assessed as weed control in transplanted rice field at 30 g/ha treated after 7 days transplanting; format: functional
[7] = test system: Schoenoplectiella juncoides; assay: Herbicidal activity against Schoenoplectiella juncoides assessed as weed control in transplanted rice field at 30 g/ha treated after 3 days transplanting; format: functional
Pontederia vaginalis [8] = assay: Herbicidal activity against Monochoria vaginalis assessed as weed control in transplanted rice field at 20 g/ha treated after 7 days transplanting; format: functional
Sagittaria pygmaea [9] = assay: Herbicidal activity against Sagittaria pygmaea assessed as weed control in transplanted rice field at 20 g/ha treated after 3 days transplanting; format: functional
Oryza sativa [10] = assay: Effect on Oryza sativa (rice) plant growth in transplanted Oryza sativa field assessed as plant height at 30 g/ha treated after 7 days transplanting; format: organism-based; conditions: in vivo, other, 168 h
Echinochloa crus-galli [11] = assay: Herbicidal activity against Echinochloa crus-galli (barnyard grass) assessed as weed control in transplanted rice field at 30 g/ha treated after 10 days transplanting; format: functional
Alisma canaliculatum [12] = assay: Herbicidal activity against Alisma canaliculatum assessed as growth inhibition measured after 2 days by pre-emergence activity assay; format: functional
unidentified [13] = assay: Herbicidal activity against broadleaf weed assessed as weed control in transplanted rice field at 30 g/ha treated after 3 days transplanting; format: functional
unidentified [14] = assay: Herbicidal activity against broadleaf weed assessed as weed control in transplanted rice field at 30 g/ha treated after 10 days transplanting; format: functional
Cyperus serotinus [15] = assay: Herbicidal activity against Cyperus serotinus assessed as weed control in transplanted rice field at 30 g/ha treated after 10 days transplanting; format: functional
Eleocharis kuroguwai = assay: Herbicidal activity against Eleocharis kuroguwai assessed as growth inhibition treated 7 to 15 days after planting measured by post-emergence activity assay; format: functional
Oryza sativa [16] = assay: Effect on Oryza sativa (rice) plant growth in transplanted Oryza sativa field assessed as number of tillers at 30 g/ha treated after 3 days transplanting; format: organism-based; conditions: in vivo, other, 72 h
Sagittaria pygmaea [17] = assay: Herbicidal activity against Sagittaria pygmaea assessed as weed control in transplanted rice field at 30 g/ha treated after 15 days transplanting; format: functional
Cyperus serotinus [18] = assay: Herbicidal activity against Cyperus serotinus assessed as weed control in transplanted rice field at 30 g/ha treated after 7 days transplanting; format: functional
Cyperus serotinus [19] = assay: Herbicidal activity against Cyperus serotinus assessed as weed control in transplanted rice field at 20 g/ha treated after 7 days transplanting; format: functional
Sagittaria pygmaea [20] = assay: Herbicidal activity against Sagittaria pygmaea assessed as weed control in transplanted rice field at 30 g/ha treated after 7 days transplanting; format: functional
Pontederia vaginalis [21] = assay: Herbicidal activity against Monochoria vaginalis assessed as weed control in transplanted rice field at 30 g/ha treated after 7 days transplanting; format: functional
Pontederia vaginalis [22] = assay: Herbicidal activity against Monochoria vaginalis assessed as weed control in transplanted rice field at 20 g/ha treated after 3 days transplanting; format: functional
Cyperus serotinus [23] = assay: Herbicidal activity against three to four-leaf stage Cyperus serotinus assessed as growth inhibition treated 7 to 15 days after planting measured by postemergence activity assay; format: functional
Echinochloa crus-galli [24] = assay: Herbicidal activity against Echinochloa crus-galli (barnyard grass) assessed as weed control in transplanted rice field at 30 g/ha treated after 15 days transplanting; format: functional
Pontederia vaginalis [25] = assay: Herbicidal activity against Monochoria vaginalis assessed as weed control in transplanted rice field at 30 g/ha treated after 10 days transplanting; format: functional
[26] = test system: Schoenoplectiella juncoides; assay: Herbicidal activity against Schoenoplectiella juncoides assessed as weed control in transplanted rice field at 30 g/ha treated after 15 days transplanting; format: functional
Echinochloa crus-galli [27] = assay: Herbicidal activity against Echinochloa crus-galli (barnyard grass) assessed as weed control in transplanted rice field at 20 g/ha treated after 7 days transplanting; format: functional
Oryza sativa [28] = assay: Effect on Oryza sativa (rice) plant growth in transplanted Oryza sativa field assessed as plant height at 30 g/ha treated after 15 days transplanting; format: organism-based; conditions: in vivo, 360 h
Pontederia vaginalis [29] = assay: Herbicidal activity against Monochoria vaginalis assessed as weed control in transplanted rice field at 30 g/ha treated after 15 days transplanting; format: functional
Sagittaria pygmaea [30] = assay: Herbicidal activity against Sagittaria pygmaea assessed as weed control in transplanted rice field at 20 g/ha treated after 7 days transplanting; format: functional
Pontederia vaginalis [31] = assay: Herbicidal activity against Monochoria vaginalis assessed as growth inhibition in paddy condition under greenhouse at 5 g/ha measured after 18 days by preemergence activity assay; format: functional; conditions: pre-emergence, 432 h, read-out: GI
Cyperus serotinus [32] = assay: Herbicidal activity against Cyperus serotinus assessed as weed control in transplanted rice field at 30 g/ha treated after 3 days transplanting; format: functional
[33] = Herbicidal activity against broadleaf weed assessed as weed control in transplanted rice field at 20 g/ha treated after 3 days transplanting; format: functional
[34] = Phytotoxicity against Oryza sativa (rice) assessed as growth inhibition under greenhouse at 5 g/ha measured after 18 days by preemergence activity assay; format: organism-based; conditions: in vivo, read-out: GI
[35] = test system: Schoenoplectiella juncoides; assay: Herbicidal activity against Schoenoplectiella juncoides assessed as weed control in transplanted rice field at 30 g/ha treated after 10 days transplanting; format: functional
Rotala indica = assay: Herbicidal activity against Rotala indica assessed as growth inhibition in paddy condition under greenhouse at 5 g/ha measured after 18 days by preemergence activity assay; format: functional; conditions: pre-emergence, 432 h, read-out: GI
Pontederia vaginalis [36] = assay: Herbicidal activity against Monochoria vaginalis assessed as weed control in transplanted rice field at 30 g/ha treated after 3 days transplanting; format: functional
Alisma canaliculatum [37] = assay: Herbicidal activity against three to four-leaf stage Alisma canaliculatum assessed as growth inhibition treated 7 to 15 days after planting measured by post-emergence activity assay; format: functional
Oryza sativa [38] = assay: Effect on Oryza sativa (rice) plant growth in transplanted Oryza sativa field assessed as number of tillers at 30 g/ha treated after 15 days transplanting; format: organism-based; conditions: in vivo, other, 360 h
Oryza sativa [39] = assay: Effect on Oryza sativa (rice) plant growth in transplanted Oryza sativa field assessed as plant height at 30 g/ha treated after 3 days transplanting; format: organism-based; conditions: in vivo, other, 72 h
Cyperus serotinus [40] = assay: Herbicidal activity against Cyperus serotinus assessed as weed control in transplanted rice field at 20 g/ha treated after 3 days transplanting; format: functional
[41] = test system: Schoenoplectiella juncoides; assay: Herbicidal activity against Schoenoplectiella juncoides assessed as weed control in transplanted rice field at 30 g/ha treated after 7 days transplanting; format: functional
Oryza sativa [42] = assay: Effect on Oryza sativa (rice) plant growth in transplanted Oryza sativa field assessed as plant height at 20 g/ha treated after 3 days transplanting; format: organism-based; conditions: in vivo, other, 72 h
Sagittaria pygmaea [43] = assay: Herbicidal activity against Sagittaria pygmaea assessed as weed control in transplanted rice field at 30 g/ha treated after 10 days transplanting; format: functional

Which results are given for CCOC(=O)c1cnn(C)c1S(=O)(=O)NC(=O)Nc1nc(OC)cc(OC)n1 [PYRAZOSULFURON ETHYL]?
I75 [1]: 13 gAi/ha; Activity [2]: 100%; Activity (Oryza sativa [3]): 96%; Activity (Oryza sativa [4]): 101%; I75 (Echinochloa crus-galli [5]): 18 gAi/ha; Activity (Echinochloa crus-galli [6]): 98%; Activity [7]: 100%; Activity (Pontederia vaginalis [8]): 100%; Activity (Sagittaria pygmaea [9]): 95%; Activity (Oryza sativa [10]): 104%; Activity (Echinochloa crus-galli [11]): 90%; I75 (Alisma canaliculatum [12]): 2.1 gAi/ha; Activity (unidentified [13]): 100%; Activity (unidentified [14]): 100%; Activity (Cyperus serotinus [15]): 97%; I75 (Eleocharis kuroguwai): 7.4 gAi/ha; Activity (Oryza sativa [16]): 99%; Activity (Sagittaria pygmaea [17]): 95%; Activity (Cyperus serotinus [18]): 100%; Activity (Cyperus serotinus [19]): 100%; Activity (Sagittaria pygmaea [20]): 98%; Activity (Pontederia vaginalis [21]): 100%; Activity (Pontederia vaginalis [22]): 100%; I75 (Cyperus serotinus [23]): 1.9 gAi/ha; Activity (Echinochloa crus-galli [24]): 85%; Activity (Pontederia vaginalis [25]): 93%; Activity [26]: 97%; Activity (Echinochloa crus-galli [27]): 98%; Activity (Oryza sativa [28]): 101%; Activity (Pontederia vaginalis [29]): 97%; Activity (Sagittaria pygmaea [30]): 98%; inhibition of growth at 5 g/ha (Pontederia vaginalis [31]): > 90%; Activity (Cyperus serotinus [32]): 100%; Activity [33]: 100%; inhibition at 432 h [34]: < 5%; Activity [35]: 93%; inhibition of growth at 5 g/ha (Rotala indica): > 90%; Activity (Pontederia vaginalis [36]): 100%; I75 (Alisma canaliculatum [37]): 1.4 gAi/ha; Activity (Oryza sativa [38]): 105%; Activity (Oryza sativa [39]): 104%; Activity (Cyperus serotinus [40]): 98%; Activity [41]: 100%; Activity (Oryza sativa [42]): 104%; Activity (Sagittaria pygmaea [43]): 95%

— ChEMBL document CHEMBL3046449, “Selective Herbicidal Activities of Ethyl 5-(4, 6-Dimethoxypyrimidin-2-ylcarbamoylsulfamoyl)-1-methylpyrazole-4-carboxylate and Its Related Compounds” (J Pestic Sci, 1990)
